The record followed here is ChEMBL document CHEMBL5465560, “Selectivity Literature for EUbOPEN Chemogenomic Library” (2024).

Test [1] deals with T1, Dual specificity mitogen-activated protein kinase kinase 3 (Homo sapiens) (UniProt P46734).
T1 sequence (whole entry): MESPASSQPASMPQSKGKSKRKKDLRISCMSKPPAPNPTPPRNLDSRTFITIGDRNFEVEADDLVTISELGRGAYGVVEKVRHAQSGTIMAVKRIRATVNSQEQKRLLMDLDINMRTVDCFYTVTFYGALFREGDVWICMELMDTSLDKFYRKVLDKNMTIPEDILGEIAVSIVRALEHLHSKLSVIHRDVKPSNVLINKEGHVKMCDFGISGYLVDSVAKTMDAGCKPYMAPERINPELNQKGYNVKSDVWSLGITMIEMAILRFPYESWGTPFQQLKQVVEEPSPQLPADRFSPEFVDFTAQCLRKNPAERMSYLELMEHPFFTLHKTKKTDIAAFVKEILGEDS
Conditions: at 10 µM.

In test [2] the target is T2, Serine/threonine-protein kinase ULK1 (Homo sapiens) (UniProt O75385).
T2 sequence (whole entry): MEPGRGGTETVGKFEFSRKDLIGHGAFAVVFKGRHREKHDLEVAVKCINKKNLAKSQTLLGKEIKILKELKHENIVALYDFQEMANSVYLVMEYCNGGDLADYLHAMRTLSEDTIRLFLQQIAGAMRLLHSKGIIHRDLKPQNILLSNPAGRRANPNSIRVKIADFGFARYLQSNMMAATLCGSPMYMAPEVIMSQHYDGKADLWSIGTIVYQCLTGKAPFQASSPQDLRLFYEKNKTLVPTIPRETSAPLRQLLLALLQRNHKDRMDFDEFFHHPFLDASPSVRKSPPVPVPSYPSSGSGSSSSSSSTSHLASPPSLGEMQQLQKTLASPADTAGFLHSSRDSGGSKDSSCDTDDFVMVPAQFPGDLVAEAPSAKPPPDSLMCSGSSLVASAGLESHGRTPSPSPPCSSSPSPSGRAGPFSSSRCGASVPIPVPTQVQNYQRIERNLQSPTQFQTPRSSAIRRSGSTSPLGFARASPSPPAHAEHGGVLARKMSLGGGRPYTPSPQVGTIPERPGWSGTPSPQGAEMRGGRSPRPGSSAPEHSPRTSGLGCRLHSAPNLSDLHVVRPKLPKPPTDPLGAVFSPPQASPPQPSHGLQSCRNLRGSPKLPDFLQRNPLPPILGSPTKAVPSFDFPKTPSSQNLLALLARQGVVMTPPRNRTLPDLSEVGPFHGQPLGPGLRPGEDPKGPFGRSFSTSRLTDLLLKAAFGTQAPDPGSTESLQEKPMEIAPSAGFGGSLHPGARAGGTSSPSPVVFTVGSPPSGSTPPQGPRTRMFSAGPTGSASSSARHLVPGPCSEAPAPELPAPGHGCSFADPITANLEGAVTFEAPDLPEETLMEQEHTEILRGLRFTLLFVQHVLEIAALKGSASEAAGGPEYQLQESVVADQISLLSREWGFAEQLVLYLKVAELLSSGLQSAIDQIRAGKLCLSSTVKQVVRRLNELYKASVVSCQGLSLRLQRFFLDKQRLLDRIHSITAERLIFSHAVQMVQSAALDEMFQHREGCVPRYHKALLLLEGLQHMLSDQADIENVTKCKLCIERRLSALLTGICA
As to the kind of experiment: Selectivity interaction (ActivX KiNativ screen (kinase selectivity in THP-1 cell lysates)) EUB0000639a ULK1. It is filed as subcellular. The settings on record: lysate, at 5 µM.

Test [3] deals with RAF proto-oncogene serine/threonine-protein kinase (Homo sapiens) (UniProt P04049). In words: Selectivity interaction (Kinase panel (Invitrogen)) EUB0000639a RAF1. The settings on record: at 200 nM.
Sequence of RAF proto-oncogene serine/threonine-protein kinase (Homo sapiens) (P04049 whole entry): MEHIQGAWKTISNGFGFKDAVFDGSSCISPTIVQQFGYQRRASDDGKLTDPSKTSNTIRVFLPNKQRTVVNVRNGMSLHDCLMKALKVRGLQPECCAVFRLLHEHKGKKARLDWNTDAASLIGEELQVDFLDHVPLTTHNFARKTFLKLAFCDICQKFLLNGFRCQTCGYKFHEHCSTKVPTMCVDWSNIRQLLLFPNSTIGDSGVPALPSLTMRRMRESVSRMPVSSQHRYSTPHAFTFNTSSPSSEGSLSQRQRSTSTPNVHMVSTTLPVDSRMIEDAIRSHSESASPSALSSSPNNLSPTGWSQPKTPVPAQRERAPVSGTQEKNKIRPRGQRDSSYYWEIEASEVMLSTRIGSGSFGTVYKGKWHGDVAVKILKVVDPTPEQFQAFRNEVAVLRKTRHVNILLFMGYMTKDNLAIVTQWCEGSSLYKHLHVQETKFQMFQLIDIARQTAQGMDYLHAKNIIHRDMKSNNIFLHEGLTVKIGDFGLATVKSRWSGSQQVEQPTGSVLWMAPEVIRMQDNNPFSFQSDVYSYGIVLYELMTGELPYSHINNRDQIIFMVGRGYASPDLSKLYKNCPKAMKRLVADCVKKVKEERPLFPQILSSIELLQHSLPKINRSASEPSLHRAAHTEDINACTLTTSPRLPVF
In test [4] the target is Glycogen synthase kinase-3 beta (Homo sapiens, UniProt P49841). In words: Selectivity interaction (KinomeScan (DiscoverX)) EUB0001049a GSK3B. The settings on record: at 1 µM.
Sequence of Glycogen synthase kinase-3 beta (P49841 whole entry, looked up): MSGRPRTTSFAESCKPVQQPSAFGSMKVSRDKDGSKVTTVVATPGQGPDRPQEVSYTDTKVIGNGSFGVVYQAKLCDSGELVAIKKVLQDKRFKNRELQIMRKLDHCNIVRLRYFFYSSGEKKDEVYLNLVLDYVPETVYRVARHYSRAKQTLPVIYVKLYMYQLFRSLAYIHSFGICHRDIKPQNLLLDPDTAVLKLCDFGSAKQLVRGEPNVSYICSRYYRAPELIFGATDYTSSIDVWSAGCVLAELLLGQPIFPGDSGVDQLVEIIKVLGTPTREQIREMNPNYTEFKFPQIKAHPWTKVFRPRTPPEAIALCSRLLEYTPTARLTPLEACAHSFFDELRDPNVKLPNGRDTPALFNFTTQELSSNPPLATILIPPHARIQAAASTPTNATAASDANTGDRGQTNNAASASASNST
Test [5] has as its target Serine/threonine-protein kinase/endoribonuclease IRE1 (Homo sapiens) (UniProt O75460). In words: Selectivity interaction (KinomeScan (DiscoverX)) EUB0000655a ERN1. Conditions: at 10 µM.
Test [6] concerns the target Platelet-derived growth factor receptor beta (Homo sapiens, UniProt P09619). As to the kind of experiment: Selectivity interaction (KinomeScan (DiscoverX)) EUB0001079a PDGFRB. Conditions: at 1 µM.
Test [7] concerns the target T3, Bone morphogenetic protein receptor type-2 (Homo sapiens) (UniProt Q13873).
T3 sequence (whole entry): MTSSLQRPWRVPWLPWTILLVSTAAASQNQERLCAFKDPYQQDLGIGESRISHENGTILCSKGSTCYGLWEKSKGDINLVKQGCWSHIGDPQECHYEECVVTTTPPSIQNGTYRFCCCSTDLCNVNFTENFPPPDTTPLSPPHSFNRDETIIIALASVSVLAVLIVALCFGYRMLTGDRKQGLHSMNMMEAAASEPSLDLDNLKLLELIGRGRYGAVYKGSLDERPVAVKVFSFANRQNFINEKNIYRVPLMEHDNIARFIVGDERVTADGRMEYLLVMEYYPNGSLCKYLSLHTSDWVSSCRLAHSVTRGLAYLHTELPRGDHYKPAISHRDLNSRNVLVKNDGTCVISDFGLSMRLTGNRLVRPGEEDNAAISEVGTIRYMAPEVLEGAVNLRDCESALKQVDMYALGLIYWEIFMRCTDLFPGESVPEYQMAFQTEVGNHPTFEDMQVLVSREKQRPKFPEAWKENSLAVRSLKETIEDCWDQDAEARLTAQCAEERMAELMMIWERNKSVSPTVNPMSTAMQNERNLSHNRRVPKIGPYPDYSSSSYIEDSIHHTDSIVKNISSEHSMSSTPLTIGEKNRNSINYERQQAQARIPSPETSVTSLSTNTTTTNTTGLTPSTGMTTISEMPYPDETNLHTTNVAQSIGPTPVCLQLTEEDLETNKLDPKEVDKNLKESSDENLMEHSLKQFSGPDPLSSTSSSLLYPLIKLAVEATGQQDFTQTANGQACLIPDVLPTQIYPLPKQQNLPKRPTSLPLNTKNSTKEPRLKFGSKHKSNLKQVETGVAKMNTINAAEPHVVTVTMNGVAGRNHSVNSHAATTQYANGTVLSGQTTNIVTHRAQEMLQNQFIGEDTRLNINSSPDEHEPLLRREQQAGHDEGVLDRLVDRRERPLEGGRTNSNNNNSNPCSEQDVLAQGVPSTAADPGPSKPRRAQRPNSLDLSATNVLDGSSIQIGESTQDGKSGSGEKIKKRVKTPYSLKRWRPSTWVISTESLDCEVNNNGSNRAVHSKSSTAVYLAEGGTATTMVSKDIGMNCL
In words: Selectivity interaction (KinomeScan (DiscoverX)) EUB0000229b BMPR2. The settings on record: at 10 µM.

Sequence of Platelet-derived growth factor receptor beta (P09619 whole entry): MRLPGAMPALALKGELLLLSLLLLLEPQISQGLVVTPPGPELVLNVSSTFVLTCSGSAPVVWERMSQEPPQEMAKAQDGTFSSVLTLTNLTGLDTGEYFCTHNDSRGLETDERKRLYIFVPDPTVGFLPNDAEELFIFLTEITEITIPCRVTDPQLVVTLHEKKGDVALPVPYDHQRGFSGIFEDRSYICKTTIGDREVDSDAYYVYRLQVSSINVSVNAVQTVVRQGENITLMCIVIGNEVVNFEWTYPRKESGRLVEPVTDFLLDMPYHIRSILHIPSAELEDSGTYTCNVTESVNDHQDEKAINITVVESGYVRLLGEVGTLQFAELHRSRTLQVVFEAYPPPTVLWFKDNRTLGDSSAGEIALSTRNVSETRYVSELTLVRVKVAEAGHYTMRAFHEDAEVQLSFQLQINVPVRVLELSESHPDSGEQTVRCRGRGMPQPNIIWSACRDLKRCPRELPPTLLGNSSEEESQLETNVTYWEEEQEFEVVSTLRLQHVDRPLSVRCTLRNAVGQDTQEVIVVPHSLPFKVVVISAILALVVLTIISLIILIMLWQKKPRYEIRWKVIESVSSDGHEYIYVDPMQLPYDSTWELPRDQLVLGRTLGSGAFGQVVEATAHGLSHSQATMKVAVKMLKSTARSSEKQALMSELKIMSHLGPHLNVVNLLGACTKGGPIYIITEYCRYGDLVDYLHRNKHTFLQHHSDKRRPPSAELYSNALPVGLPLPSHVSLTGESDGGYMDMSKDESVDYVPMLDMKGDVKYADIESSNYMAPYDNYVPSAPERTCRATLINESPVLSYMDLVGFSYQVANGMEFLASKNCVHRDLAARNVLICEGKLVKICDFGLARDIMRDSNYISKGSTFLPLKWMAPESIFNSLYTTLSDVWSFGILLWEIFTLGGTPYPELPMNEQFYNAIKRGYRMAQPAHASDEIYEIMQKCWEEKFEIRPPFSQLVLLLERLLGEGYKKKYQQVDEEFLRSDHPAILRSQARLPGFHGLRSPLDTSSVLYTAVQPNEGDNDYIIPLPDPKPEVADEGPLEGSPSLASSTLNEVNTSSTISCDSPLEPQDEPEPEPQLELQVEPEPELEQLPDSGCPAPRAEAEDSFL
Sequence of Serine/threonine-protein kinase/endoribonuclease IRE1 (Homo sapiens) (O75460 19-977 limits assumed): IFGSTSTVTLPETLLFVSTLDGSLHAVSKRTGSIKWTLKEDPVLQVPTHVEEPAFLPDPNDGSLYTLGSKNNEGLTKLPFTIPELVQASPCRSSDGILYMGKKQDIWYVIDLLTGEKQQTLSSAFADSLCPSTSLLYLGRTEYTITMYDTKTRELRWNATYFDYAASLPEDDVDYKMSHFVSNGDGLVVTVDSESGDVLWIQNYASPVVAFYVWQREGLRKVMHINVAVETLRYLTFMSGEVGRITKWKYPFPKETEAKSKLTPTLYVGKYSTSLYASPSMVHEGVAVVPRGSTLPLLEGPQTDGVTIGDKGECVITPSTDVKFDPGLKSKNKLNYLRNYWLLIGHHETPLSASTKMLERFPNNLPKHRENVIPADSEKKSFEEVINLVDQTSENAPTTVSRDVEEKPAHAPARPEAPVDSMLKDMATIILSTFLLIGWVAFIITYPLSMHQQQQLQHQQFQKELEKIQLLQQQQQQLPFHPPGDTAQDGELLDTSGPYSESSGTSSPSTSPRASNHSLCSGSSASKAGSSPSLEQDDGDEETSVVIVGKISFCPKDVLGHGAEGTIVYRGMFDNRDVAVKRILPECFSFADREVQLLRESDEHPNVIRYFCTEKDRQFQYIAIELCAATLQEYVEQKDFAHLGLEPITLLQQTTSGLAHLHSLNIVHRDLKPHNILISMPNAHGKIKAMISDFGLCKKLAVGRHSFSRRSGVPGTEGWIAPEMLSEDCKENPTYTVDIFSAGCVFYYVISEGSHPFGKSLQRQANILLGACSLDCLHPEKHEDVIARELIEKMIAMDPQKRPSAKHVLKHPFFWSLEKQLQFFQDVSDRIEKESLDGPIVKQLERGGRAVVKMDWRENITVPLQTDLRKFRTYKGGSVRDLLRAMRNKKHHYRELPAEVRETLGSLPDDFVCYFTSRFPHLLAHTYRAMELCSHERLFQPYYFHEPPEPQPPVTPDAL

In test [1], `CCN(CC)CCCCNc1ncc2cc(-c3cc(OC)cc(OC)c3)c(NC(=O)NC(C)(C)C)nc2n1` displayed a % of control of 100%. In the case of `CC[C@@H]1[C@H](F)C(=O)N[C@@H]1COc1nccc2cc(C(N)=O)c(OC)cc12` [ZIMLOVISERTIB], the % of inhibition is -74.1% in test [2] and 10.1% in test [3]. As to `COc1cc(Nc2nc(C)cc(-c3cnn4nc(OC)ccc34)n2)cc(C(F)(F)F)c1`, the % of control in test [4] worked out at 100%. The molecule `CN(C)CCOc1ccc(-c2nc(-c3ccncc3)c(-c3ccc4c(c3)CC/C4=N\O)[nH]2)cc1` had a % of control in test [5] of 62%. Consider `Nc1cnc(N2CCc3cc(S(=O)(=O)Nc4c(F)cc(Cl)cc4F)cc(N4CCCC4=O)c32)nc1` [TP-020n], for which the % of control in test [6] was found to be 100%. `COc1cc(N(C)c2ccnc3ccc(C(F)(F)F)cc23)cc(OC)c1OC` displayed a % binding in test [7] of 94%.
